Test results taken from patent US20080200515A1, “SOLID STATE FORMS OF ENANTIOPURE ILAPRAZOLE” (TAP PHARMACEUTICAL PRODUCTS INC., priority 2006, published 2008).

Key:
gastric acid = test: Phase 1 clinical studies with ilaprazole: suppression of gastric acid; format: in vivo, human; conditions: at the doses studied
[1] = system: acid-related gastric and duodenal ulcers; test: Phase 2 clinical studies with ilaprazole in patients with gastric-acid related disorders; format: in vivo, human; conditions: at the doses studied

Q: With COc1ccnc(C[S+]([O-])c2nc3cc(-n4cccc4)ccc3[nH]2)c1C (stereo not drawn) [ilaprazole, 2[[(4-methoxy-3-methyl-2-pyridinyl)-methyl]sulfinyl]-5-(1H-pyrrol-1-yl) 1H-Benzimidazole] as the compound, how does the “suppression of gastric acid” value (gastric acid) read?
A: suppression of gastric acid occurs over a 24-hour period

Q: And the “healing of acid-related gastric and duodenal ulcers” value [1]?
A: promoted rapid healing

Q: And the symptomatic relief ([1]; patients with gastric-acid related disorders)?
A: provided symptomatic relief
